Entries after “also recorded” stand apart in the source; their conditions may differ. Like-named read-outs stand apart in the source and are kept apart here.
Tests used:
[1] = test system: Hep 2 cells; experiment: Proliferation of human epithelial carcinoma Hep 2 cells; type: cell-based
Method: In our experiments we used a 1 day culture of passage 14 Hep 2 cells—reinoculated cells of human epithelial carcinoma.
The growth medium contained DMEM+glutamine+antibiotics+5% FBS (fetal bovine serum). The supporting medium was DMEM/needle with a double kit of amino acids and vitamins+glutamine+antibiotics+10% of cattle serum.
The effect of such influence was most pronounced on the seventh day at the concentration of 100 μg/ml: there appeared discontinuities in the monolayer and there were many cell conglomerates in the culture medium.
The monolayer was removed from the glass plate in the 500 μl volume of the medium. The cells were precipitated from 200 μl, resuspended in a lysing buffer; electrophoresis of proteins was carried out in 12.5% PAAG with Kumashi staining.
(§1) A reduction in the intensity of protein profiles was observed on the second day and most dramatically on the seventh day at the studied concentrations of the preparation as compared with control. This can be indicative of a reduction in the number of cells because of inhibition of the mitotic activity of cells in the presence of the preparation. On the 7th day of the action of the preparation a reduction in the number of DNA compared with control was observed. Checking for the presence of DNA fragmentation has shown its absence, i.e., apoptosis manifestations were not detected.

[2] = test system: herpes simplex virus (HSV-1); experiment: Antiviral activity with respect to HSV-1 in human embryo fibroblasts (M-21); type: cell-based, type 1, strain L2; conditions: 100 TCD50, 48 hours after the infection
Source text: Herpes simplex virus, type 1, strain L2, replicated in VERO cells was used in the investigation.
[…] acyclovir was used as positive control

[3] = test system: African green monkey kidney cells (VERO); experiment: Cytotoxic action on non-infected VERO cells; type: cell-based; conditions: 500 and 1000 μg/ml; 3-days follow-up
[4] = test system: porcine embryo kidney cells (SPEV); experiment: Cytotoxic properties on SPEV cell culture; type: cell-based; conditions: for Percentage of died cells on exposure with different concentrations of the preparation during 48 hours: SPEV
Method: Cultures of reinoculated porcine embryo kidney cells (SPEV), highly sensitive to the pathogenic action of HSV, obtained from “Narva” Company (Russia) were employed. These cultures were used in the form of a one day monolayer of cells, grown in 24-cell plastic plates. The cultures of SPEV cells were grown on medium 199 with 10% of fetal calf serum with addition of glutamine and antibiotics (100 U/ml).
For studying the antiviral activity of the preparation, the preparation was introduced in various concentrations into the SPEV cell cultures at the moment of infection and in 24 hours after the infection with hepatitis C virus on the cell in 24-cell plastic culture plates.

[5] = test system: Hep 2 cells; experiment: Apoptosis signs in Hep 2 cells (DNA fragmentation, Fas-antigen mRNA forms); type: cell-based, human; conditions: for Redistribution of soluble and membrane Fas-antigen mRNA forms indicative of Fas-dependent apoptosis: 10, 50, 100 μg/ml
Source text: as §1
For establishing the influence of the preparation on intracellular biosynthetic processes, we have analyzed the synthesis and maturing in the Hep 2 cells of Fas-antigen mRNA. Fas-antigen is a receptor protein of the signal of programmed death of cells—apoptosis—and it can exist in two forms: in membrane form and in soluble form. It has been shown that in the presence of the preparation there occurs redistribution of the alternative forms of the Fas-antigen mRNA, this being indicative of the influence of the preparation on the biosynthetic processes in Hep 2 cells on the transcripton level; however, reconstructions indicative of the feasibility of Fas-dependent apoptosis are absent (FIG. 8).

sodium salt of fullerene-polyamino-caproic acid
Number of DNA compared with control ([1]; 7th day): reduction | Proliferation of Hep 2 cells (monolayer formation) ([1]; 10, 50 and 100 μg/ml, most pronounced at 100 μg/ml): pronounced inhibition; also recorded: inhibits the formation of a monolayer | Intensity of protein profiles compared with control ([1]; second day and most dramatically seventh day, 10, 50 and 100 μg/ml): reduction | Protection of M-21 cells against the cytodestructive action of HSV-1 ([2]; 10 μg/ml): full protection | Protection of M-21 cells from the cytodestructive action of HSV-1 ([2]; 1.0, 10 and 50 μg/ml, introduced 30 and 60 minutes after the infection): full protection | Cytodestructive action on non-infected VERO cells [3]: has not revealed cytodestructive action | Percentage of died cells on exposure with different concentrations of the preparation during 48 hours ([4]; 6.25 (in μg)): 0% | Percentage of died cells on exposure with different concentrations of the preparation during 48 hours ([4]; 12.5 (in μg)): 0% | Percentage of died cells on exposure with different concentrations of the preparation during 48 hours ([4]; 25 (in μg)): 0% | Percentage of died cells on exposure with different concentrations of the preparation during 48 hours ([4]; 50 (in μg)): 0% | Percentage of died cells on exposure with different concentrations of the preparation during 48 hours ([4]; 100 (in μg)): 0% | Cytotoxic properties for SPEV cell cultures ([4]; concentration of up to 100 μg/ml): does not have cytotoxic properties | DNA fragmentation (apoptosis manifestations) [5]: not recorded | Redistribution of soluble and membrane Fas-antigen mRNA forms indicative of Fas-dependent apoptosis [5]: no redistribution | Redistribution of soluble and membrane Fas-antigen mRNA forms indicative of Fas-dependent apoptosis ([5]; listed as preparation): absent | DNA fragmentation (apoptosis manifestations) ([5]; listed as preparation): absence

From patent US20060122276A1, “Agent for inhibiting membrane virus reproduction, method for the production thereof, pharmaceutical composition and method for inhibiting viral infections” (priority 2003, published 2006)
